Data as given in patent publication US12616700B2, “Therapeutic regimen” (Novartis AG, priority 2017, dated 2026).
Where two headings read alike, the source gives them in different places. Each block holds one molecule with its values, some of them ahead of it.

What was measured:
[1] = system: P. vivax; conditions: in vitro; cited from earlier work
[2] = Dog study of lumefantrine-SDF and KAF156 alone and co-dosed (Example 6); assay type: in vivo; conditions: for Cmax / AUC(0-inf) / AUC(0-t) / half-life / Tmax: po, 100 mg; for AUC(0-inf): read-out: AUCinf, Mean; for AUC(0-t): read-out: AUClast, Mean; for half-life: read-out: T½, Mean (converted)
Description: The study design is described in the table below. To stimulate gastric secretion, each animal (dog) received a single 6-μg/kg intramuscular injection of pentagastrin approximatively 60 minutes prior to test article administration. Washout between each treatment was approximatively 7-8 days. [table]

[3] = system: Plasmodium; conditions: causal prophylactic protection in animal infection models; cited from earlier work
[4] = system: P. vivax or P. falciparum; conditions: cited from earlier work
[5] = system: drug-sensitive and a broad panel of drug resistant malaria strains; conditions: cited from earlier work
[6] = system: P. falciparum; conditions: in vitro; cited from earlier work
[7] = system: liver hypnozoites; conditions: cited from earlier work
[8] = assay type: in vitro ADME
Description: Lumefantrine concentration was determined by a validated Liquid chromatography-Mass spectrometry (LC-MS/MS) method with a Lower Limit of Quantification (LLOQ) of 50 ng/mL. Briefly, the bioanalytical method consisted of protein precipitation followed by solid phase extraction of human plasma samples and analysis of diluted samples by LC-MS/MS in Multiple Reaction Monitoring (MRM) positive mode using Electrospray Ionization (ESI) as the ionization technique. The lower and upper limits of quantification for linear range were 50.0 ng/mL and 20000 ng/mL respectively using […] of human plasma. Lumefantrine in human plasma is stable for 44 hours at room temperature; 9 months at ≤−70° C.; 3 freeze/thaw cycles at ≤−70° C. The extract is stable for 100 hours in an autosampler at 8° C. The stability data could cover the period from sampling to analysis of all study samples. For eight points calibration concentrations (50, 100, 200, 500, 2000, 5000, 16000 and 20000 ng/mL) bias was within the range of 15.0% at all concentrations except for LLOQ (50 ng/mL) for which it was within the range of 20.0%. For quality control samples (150 ng/mL, 2500 ng/mL and 15000 ng/mL) bias was within the range of 15.0% for at least ⅔ of the individual values.

[9] = cited from earlier work
[10] = Dog 3 (emesis after dosing in Phase 5)
[11] = dog, in vivo, Phase 2 (Combo), dog
[12] = dog, in vivo, Phase 5 (Mono), dog
[13] = P. falciparum malaria, multiple-dose cohort

AUCinf Ratio (Phase 2:Phase 5) ([2]; Dog 1): 2.6 | AUClast Ratio (Phase 2:Phase 5) ([2]; Dog 1): 2.7 | Cmax Ratio (Phase 2:Phase 5) ([2]; Dog 1): 2.6 | AUCinf Ratio (Phase 2:Phase 5) ([2]; Dog 2): 2.8 | AUClast Ratio (Phase 2:Phase 5) ([2]; Dog 2): 2.9 | Cmax Ratio (Phase 2:Phase 5) ([2]; Dog 2): 2.5 | AUCinf Ratio (Phase 2:Phase 5) ([2]; Mean): 3.6 | AUClast Ratio (Phase 2:Phase 5) ([2]; Mean): 3.6 | Cmax Ratio (Phase 2:Phase 5) ([2]; Mean): 2.8 | Cmax ([2]; dog, in vivo, Phase 2 (Combo)): 1200 ng/mL | AUC(0-inf) [2, 11]: 45400 ng·h/mL | AUC(0-t) [2, 11]: 36700 ng·h/mL | half-life ([2]; dog, in vivo, Phase 2 (Combo), with Lumefantrine-SDF sachet, dog): 31 h | Tmax ([2]; dog, in vivo, Phase 2 (Combo), Tmax 1, 1, 8 hr in 3 dogs): 3.3 h | Cmax ([2]; dog, in vivo, Phase 5 (Mono)): 451 ng/mL | Tmax ([2]; dog, in vivo, Phase 5 (Mono)): 1 h | AUC(0-inf) [2, 12]: 14400 ng·h/mL | AUC(0-t) [2, 12]: 11600 ng·h/mL | half-life [2, 12]: 33.2 h
Compound: CC1(C)c2nc(-c3ccc(F)cc3)c(Nc3ccc(F)cc3)n2CCN1C(=O)CN [KAF156, 2-amino-1-(2-(4-fluorophenyl)-3-(4-fluorophenylamino)-8,8-dimethyl-5,6-dihydroimidazo[1,2-a]pyrazin-7(8H)-yl)ethanone]
EC50, erythrocytic replication life cycle stages (blood stages) [1]: low nanomolar | AUCinf Ratio (Phase 2:Phase 5) [2, 10]: 5.3 | AUClast Ratio (Phase 2:Phase 5) [2, 10]: 5.2 | Cmax Ratio (Phase 2:Phase 5) [2, 10]: 3.3 | activity in liver stage models of Plasmodium infection [3]: has shown activity | serious adverse events ([4]; 400 mg/day for 3 days or single 800 mg): No serious adverse event was reported | patients who reported nausea [4, 13]: 1 patient | patients who vomited [4, 13]: 1 patient | activity against vivax and falciparum malaria, including artemisinin-resistant parasites ([4]; malaria patients): has activity | half-life ([4]; malaria patients): about 50 hours | patients who vomited ([4]; single 800-mg dose, besides one withdrawn for repeated vomiting): Five | patients who reported nausea ([4]; single 800-mg dose): Four | potency against drug-sensitive versus drug resistant malaria strains [5]: equally potent | EC50, erythrocytic replication life cycle stages (blood stages) [6]: low nanomolar | activity against liver hypnozoites [7]: has not demonstrated activity

increase of lumefantrine exposure when administered together with KAF156 ([2]; dog, in vivo): around 1.5 fold | stability of the extract ([8]; human, 100 hours): 100 h | stability in human plasma ([8]; plasma, 44 hours): 44 h
Compound: CCCCN(CCCC)CC(O)c1cc(Cl)cc2c1-c1ccc(Cl)cc1/C2=C/c1ccc(Cl)cc1 (stereo not drawn) [Lumefantrine, lumefantrine]
increase of bioavailability by food ([9]; in vivo): up to 16 fold

Compound: CO[C@H]1O[C@@H]2O[C@@]3(C)CC[C@H]4[C@H](C)CC[C@@H]([C@H]1C)[C@@]24OO3 [artemether]
increase of bioavailability by food ([9]; Coartem administered with high fat food): up to 3 fold
